Laboratory results as given in the supplement of paper PMC10331698.
± gives the standard deviation of the averaged measurements.

Columns and labels:
Experiment in all cases: level (log10 ratio to DMSO vehicle control); higher = higher biomarker level / cell amount than vehicle control
Conditions in all cases: in DMSO
Perfluoropentanoic acid = compound: O=C(O)C(F)(F)C(F)(F)C(F)(F)C(F)(F)F [Perfluoropentanoic acid]
Procedure: (§1)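 BioMAP Diversity Plus panel of 12 human primary cell co-culture systems (3C, 4H, LPS, SAg, BT, BF4T, BE3C, CASM3C, HDF3CGF, KF3CT, MyoF, Mphg). Compounds were added 1 h before stimulation and left for 24 h (MyoF 48 h; BT 72 h for soluble read-outs or 6 d for IgG). Biomarkers were read by ELISA, cytotoxicity by SRB, PBMC viability and proliferation by Alamar Blue. Each well value was divided by the mean of 8 DMSO control wells on the same plate and log10 transformed; duplicate blinded samples were tested at 4 concentrations.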

[1] = compound: O=C(O)C(F)(F)C(F)(F)C(F)(F)C(F)(F)C(F)(F)C(F)(F)C(F)(F)C(F)F [9-H-Perfluorononanoic acid]
Procedure: as §1

[2] = compound: C=CC(F)(F)C(F)(F)C(F)(F)C(F)(F)C(F)(F)C(F)(F)C(F)(F)C(F)(F)C=C [1,8-Divinylperfluorooctane]
Procedure: as §1

Perfluoro-1-iodohexane = compound: FC(F)(F)C(F)(F)C(F)(F)C(F)(F)C(F)(F)C(F)(F)I [Perfluoro-1-iodohexane]
Procedure: as §1

[3] = compound: O=S(=O)(O)C(F)(F)C(F)(F)C(F)(F)C(F)(F)C(F)(F)C(F)(F)F [Perfluorohexanesulfonic acid]
Procedure: as §1

[4] = compound: C=CC(=O)OCC(F)(F)C(F)(F)C(F)(F)C(F)(F)C(F)(F)C(F)(F)C(F)(F)F [1H,1H-Perfluorooctyl acrylate]
Procedure: as §1

Pentafluoropropionamide = compound: NC(=O)C(F)(F)C(F)(F)F [Pentafluoropropionamide]
Procedure: as §1

Test System | level (log10) (Perfluoropentanoic acid; 6700 nM) | level (log10) (Perfluoropentanoic acid; 20000 nM) | level (log10) (Perfluoropentanoic acid; 60000 nM) | level (log10) ([1]; 6700 nM) | level (log10) ([1]; 20000 nM) | level (log10) ([1]; 60000 nM) | level (log10) ([2]; 6700 nM) | level (log10) ([2]; 20000 nM) | level (log10) (Perfluoro-1-iodohexane; 6700 nM) | level (log10) (Perfluoro-1-iodohexane; 20000 nM) | level (log10) (Perfluoro-1-iodohexane; 60000 nM) | level (log10) ([3]; 6700 nM) | level (log10) ([3]; 20000 nM) | level (log10) ([3]; 60000 nM) | level (log10) ([4]; 6700 nM) | level (log10) ([4]; 20000 nM) | level (log10) ([4]; 60000 nM) | level (log10) (Pentafluoropropionamide; 6700 nM) | level (log10) (Pentafluoropropionamide; 20000 nM) | level (log10) (Pentafluoropropionamide; 60000 nM)
BF4T:MMP-1 | 0 ± 0.014 | -0.005 ± 0.0057 | 0.0085 ± 0.0092 | 0.005 ± 0.021 | -0.0075 ± 0.039 | 0.0925 ± 0.00071 | -0.0045 ± 0.005 | 0.0135 ± 0.035 | 0.0045 ± 0.005 | 0.0035 ± 0.0035 | 0.009 ± 0.011 | 0.0035 ± 0.0021 | -0.0025 ± 0.023 | 0.0255 ± 0.0035 | 0.009 ± 0.021 | 0.0065 ± 0.0092 | 0.006 ± 0.0042 | -0.005 ± 0.0099 | -0.0105 ± 0.0078 | 0.012 ± 0.016
BT:sIL-17A | 0.0585 ± 0.042 | -0.0535 ± 0.0078 | 0.055 ± 0.13 | 0.0095 ± 0.087 | -0.02 ± 0.024 | -0.126 ± 0.0099 | -0.0055 ± 0.026 | 0.0625 ± 0.079 | -0.004 ± 0.018 | -0.0905 ± 0.12 | -0.089 ± 0.2 | 0.135 ± 0.11 | -0.0225 ± 0.25 | -0.133 | -0.242 ± 0.26 | -0.141 ± 0.05 | -0.409 ± 0.18 | 0.0075 ± 0.1 | -0.031 ± 0.051 | 0.0105 ± 0.015
BE3C:CXCL8/IL-8 | -0.023 ± 0.0042 | -0.036 ± 0.017 | -0.0085 ± 0.057 | 0.0255 ± 0.084 | 0.0435 ± 0.059 | 0.0385 ± 0.023 | 0.0025 ± 0.021 | 0.01 ± 0.02 | 0.011 ± 0.033 | 0.021 ± 0.028 | 0.052 ± 0.033 | 0.017 ± 0.0071 | 0.0175 ± 0.023 | -0.032 ± 0.044 | 0.0375 ± 0.012 | 0.066 | 0.071 ± 0.042 | 0.016 ± 0.028 | 0.0125 ± 0.074 | 0.0445 ± 0.044
BE3C:HLA-DR | -0.0095 ± 0.018 | 0 ± 0.011 | 0.016 ± 0.033 | -0.102 ± 0.042 | -0.14 ± 0.052 | -0.15 ± 0.0014 | 0.021 ± 0.016 | 0.014 | -0.003 ± 0.0028 | 0.003 ± 0.0057 | -0.009 ± 0.0028 | -0.014 ± 0.031 | -0.0285 ± 0.013 | -0.0585 ± 0.028 | -0.0055 ± 0.005 | -0.0025 ± 0.005 | 0.0055 ± 0.012 | -0.0115 ± 0.0078 | 0.0045 ± 0.0064 | 0.0055 ± 0.026
4H:CD87/uPAR | -0.0435 ± 0.035 | -0.0355 ± 0.005 | -0.055 ± 0.0028 | 0.002 ± 0.037 | 0.027 ± 0.017 | 0.019 ± 0.013 | -0.0125 ± 0.015 | 0.0215 ± 0.0064 | -0.0035 ± 0.053 | 0.017 ± 0.062 | 0.036 ± 0.12 | -0.002 ± 0.023 | 0.0065 ± 0.013 | -0.0055 ± 0.022 | -0.009 ± 0.062 | 0.0005 ± 0.037 | -0.003 ± 0.018 | 0.009 ± 0.02 | -0.0185 ± 0.00071 | -0.009 ± 0.0099
BT:sIL-17F | -0.06 ± 0.027 | -0.0325 ± 0.044 | 0.0375 ± 0.19 | 0.0055 ± 0.0064 | 0.0945 ± 0.035 | 0.031 ± 0.0085 | 0.012 ± 0.037 | 0.051 ± 0.0057 | 0.0035 ± 0.015 | 0.041 ± 0.12 | 0.0815 ± 0.061 | 0.0235 ± 0.09 | 0.0375 ± 0.018 | -0.063 | -0.0975 ± 0.16 | -0.324 ± 0.11 | -0.372 ± 0.063 | -0.02 ± 0.085 | -0.03 | 0.0275 ± 0.0064
4H:CD106/VCAM-1 | 0.002 ± 0.038 | 0.0125 ± 0.0021 | 0.024 ± 0.013 | 0.005 ± 0.054 | 0.0095 ± 0.016 | -0.001 ± 0.016 | -0.012 ± 0.021 | 0.0035 ± 0.00071 | 0.013 ± 0.03 | 0.01 ± 0.034 | 0.014 ± 0.068 | -0.013 ± 0.0042 | -0.023 ± 0.0042 | -0.012 ± 0.014 | 0.0165 ± 0.036 | 0.032 ± 0.023 | 0.0225 ± 0.059 | -0.02 | -0.011 ± 0.03 | 0.0015 ± 0.0092
4H:SRB | -0.0125 ± 0.00071 | -0.0065 ± 0.016 | -0.0025 ± 0.021 | 0.008 ± 0.033 | -0.0115 ± 0.025 | -0.039 ± 0.0099 | 0.002 ± 0.0057 | 0.0125 ± 0.00071 | -0.0065 ± 0.011 | -0.008 ± 0.0042 | -0.0105 ± 0.0035 | -0.0245 ± 0.015 | -0.025 ± 0.017 | -0.045 ± 0.023 | 0.003 ± 0.016 | 0.0015 ± 0.013 | 0.0045 ± 0.0064 | -0.0055 ± 0.021 | -0.0095 ± 0.0078 | -0.0135 ± 0.016
LPS:CD106/VCAM-1 | 0.005 ± 0.013 | 0.004 ± 0.0057 | 0.0035 ± 0.023 | -0.0165 ± 0.013 | -0.006 ± 0.0028 | 0.0075 ± 0.033 | -0.0145 ± 0.0092 | -0.033 ± 0.0014 | -0.031 ± 0.0057 | -0.0145 ± 0.018 | -0.029 ± 0.0028 | -0.016 ± 0.017 | -0.0155 ± 0.015 | 0.005 ± 0.016 | -0.0045 ± 0.011 | -0.0165 ± 0.0021 | -0.0145 ± 0.0078 | -0.041 ± 0.0014 | -0.021 ± 0.0099 | -0.0135 ± 0.018
SAg:CD38 | 0.003 ± 0.017 | 0.0015 ± 0.011 | 0.002 ± 0.0057 | 0.0255 ± 0.039 | -0.015 ± 0.0085 | -0.016 ± 0.011 | -0.009 ± 0.016 | -0.0055 ± 0.0092 | -0.059 ± 0.15 | -0.01 ± 0.02 | 0.0005 ± 0.076 | -0.006 ± 0.014 | 0.004 ± 0.038 | -0.023 ± 0.014 | -0.016 ± 0.018 | -0.009 ± 0.016 | -0.02 ± 0.014 | -0.026 ± 0.02 | -0.0125 ± 0.028 | 0.0005 ± 0.0064
LPS:CD141/Thrombomodulin | -0.0115 ± 0.047 | -0.045 ± 0.073 | -0.0085 ± 0.11 | 0.015 ± 0.017 | 0.018 ± 0.0057 | 0.027 ± 0.03 | -0.0025 ± 0.00071 | 0.011 ± 0.021 | -0.0175 ± 0.0035 | -0.0095 ± 0.025 | -0.0105 ± 0.0092 | -0.007 ± 0.0057 | -0.0065 ± 0.013 | -0.008 ± 0.0014 | -0.0365 ± 0.0021 | -0.052 ± 0.013 | -0.052 ± 0.011 | -0.0385 ± 0.00071 | -0.005 ± 0.0028 | -0.01 ± 0.0014
LPS:sTNF-alpha | 0.003 ± 0.021 | 0.01 ± 0.0071 | 0.021 ± 0.014 | -0.0145 ± 0.012 | -0.0055 ± 0.016 | -0.0115 ± 0.019 | 0.055 ± 0.016 | 0.035 ± 0.035 | 0.0005 ± 0.022 | -0.008 ± 0.016 | 0.0075 ± 0.029 | -0.007 ± 0.025 | -0.0195 ± 0.015 | -0.0695 ± 0.0092 | 0.0115 ± 0.00071 | 0.0285 ± 0.011 | 0.021 ± 0.013 | 0.05 ± 0.0014 | 0.0015 ± 0.023 | 0.0095 ± 0.04
SAg:CD69 | 0.002 ± 0.016 | -0.0155 ± 0.028 | -0.0165 ± 0.033 | -0.0335 ± 0.025 | -0.034 ± 0.0085 | -0.0245 ± 0.00071 | -0.042 ± 0.021 | -0.012 ± 0.035 | -0.0155 ± 0.033 | -0.017 ± 0.024 | 0.006 ± 0.0014 | -0.0235 ± 0.00071 | -0.0175 ± 0.012 | -0.06 ± 0.0014 | -0.0205 ± 0.021 | -0.024 ± 0.011 | -0.035 ± 0.018 | -0.026 ± 0.013 | -0.0385 ± 0.018 | -0.026 ± 0.0071
SAg:CD62E/E-Selectin | 0.0005 ± 0.0064 | -0.012 ± 0.013 | 0.0195 ± 0.025 | -0.015 ± 0.013 | -0.0075 ± 0.013 | 0.065 ± 0.031 | -0.0205 ± 0.012 | -0.0195 ± 0.005 | -0.009 ± 0.0014 | 0.0055 ± 0.019 | 0.0095 ± 0.044 | -0.0115 ± 0.00071 | -0.008 ± 0.02 | 0.0405 ± 0.0064 | -0.0035 ± 0.0064 | -0.036 ± 0.0042 | -0.0335 ± 0.016 | -0.0215 ± 0.005 | -0.0095 ± 0.026 | -0.0115 ± 0.018
